The subject of one data set is MCF-7. As to the kind of experiment: Cell growth/survival, MCF-7 breast cancer cells. It counts as cell-based. The note with it: Homo sapiens, MCF7, TP53 neg. The procedure:
(§1) Melanoma cell lines used in this study were maintained in Dulbecco's modified Eagle medium (DMEM with 4500 mg/l glucose) supplemented with 10% FCS from Gibco BRL (Life Technologies, Berlin, Germany). The canine mastocytoma cell line C2 (DeVinney et al, Am. J. Respir. Cell Mol. Biol. 3:413-20, 1990) was used in this study, along with additional human cell lines: RD-ES and TC-71 (human Ewing's sarcoma), SAOS2 (human osteosarcoma), HT-1080 (human fibrosarcoma), Caco-2 (human colon adenocarcinoma), A549 (human lung adenocarcinoma), Hep-G2 and Hep-3B (human hepatocellular carcinoma), SK-N-DZ and SK-N-FI (human embryonal neuroblastoma), HTB9 (human bladder cancer), MDA-468 and MCF-7 (human breast cancer) and SW872 liposarcoma. All breast cancer cells were routinely cultured in DMEM/F-12 or in DMEM alone supplemented with 10% FCS at 37° C. in a humidified 5% CO2 atmosphere. RD-ES and TC-71 sarcoma cell lines were maintained in RPMI 1640 (Biochrom KG, Berlin, Germany) containing 10% FCS at 37° C. in a humidified 5% CO2 atmosphere. […]
(§2) Briefly, cells were maintained in standard medium, harvested, and plated at equal densities (750,000 cells in 5 cm tissue culture dishes). […] For the assessment of cell growth, the number of surviving cells was determined using an automated cell counter from Beckman Coulter GmbH (Krefeld, Germany). […]

The test system of the next data set is Hep-G2. As to the kind of experiment: Cell growth/survival, Hep-G2 hepatocellular carcinoma cells. It is filed as cell-based. The conditions noted are these: Homo sapiens, HepG2, TP53 neg. The procedure: as §1, §2
The next data set has as its system RD-ES (Ewing's sarcoma). As to the kind of experiment: Cell growth/survival, RD-ES Ewing's sarcoma cells. It counts as cell-based. The conditions noted are these: Homo sapiens, TP53 mut. How it is done: as §1, §2
The subject of the next data set is TC-71 (Ewing's sarcoma). Description: Cell growth/survival, TC-71 Ewing's sarcoma cells. It counts as cell-based. The note with it: Homo sapiens, TP53 mut. The procedure: as §1, §2
For data set [1], the system named is melanoma, liposarcoma, colon-and lung cancer cells. Description: Cell growth in select cancer cell lines, NVX-207 compared to betulinic acid (FIGS. 1A-D). It counts as cell-based. The note with it: various cancer and non-cancer cells, human and animal cell lines. How it is done: FIGS. 1A-D show cell survival in select human cancer cell lines: 518A2 melanoma (FIG. 1A), SW872 liposarcoma (FIG. 1B), Caco-2 colon carcinoma (FIG. 1C) and A549 lung carcinoma (FIG. 1D). Cell survival as a percentage of untreated controls (y-axis) in response to NVX-207 (grey lines) or betulinic acid (black lines) in μg/ml (x-axis) are shown.
as §1, with “liposarcoma.” for “liposarcoma. All breast cancer cells were routinely cultured in DMEM/F-12 or in DMEM alone supplemented with 10% FCS at 37° C. in a humidified 5% CO2 atmosphere. RD-ES and TC-71 sarcoma cell lines were maintained in RPMI 1640 (Biochrom KG, Berlin, Germany) containing 10% FCS at 37° C. in a humidified 5% CO2 atmosphere.”
as §2

The subject of data set [2] is human umbilical vein endothelial cells (HUVEC). Description: Survival of HUVEC at 80% and 30% confluency. It counts as cell-based. The note with it: 2.5 μM; for Mean survival, percentage of control-treated cells: HUVEC, n=3. How it is done:
(§3) All cells were treated with 2.5 μM NVX-207. Percentage (means±S.E., n=3) of control-treated cells are given. […] Mean survival in NVX-207 treated fibroblasts at 80% confluency was 92% (S.E.=3.8) versus 3.8% mean survival (S.E.=0.4) at 30% confluency. […] HUVECs, keratinocytes and fibroblast cells were obtained from Lonza GmbH (Wuppertal, Germany) and cultivated according to the manufacturer's instructions.
(§4) Human umbilical vein endothelial cells (HUVEC), keratinocytes and fibroblast cells were obtained from Lonza GmbH (Wuppertal, Germany) and cultivated according to the manufacturer's instructions. […] The IC50 value of betulinic acid in human keratinocytes was recently determined to be ˜5.0 μg/ml (Tino Galgon al., Exp Dermatol. 14:736-43, 2005), while the IC50 of NVX-207 is ˜0.7 µg/ml. […] Mean survival in NVX-207 treated fibroblasts at 80% confluency was 92% (S.E.=3.8) versus 3.8% mean survival (S.E.=0.4) at 30% confluency. […] Under normal physiological conditions, the endothelium, as well as skin fibroblasts and skin keratinocytes, show relatively low turn-over and limited cell divisions to maintain tissue integrity.
(§5) Keratinocytes at high confluence (e.g., 80%) mimic normal physiological conditions in which these cells divide more slowly (fewer cell divisions per unit of time). In contrast, keratinocytes in psoriatic lesions divide more rapidly, as do keratinocytes cultured at lower confluency (e.g., 30%). Thus, the 30% confluency conditions were considered a model for psoriasis whereas the behavior of 80% confluent cells more closely reflects the conditions observed in normal skin.

Another data set has as its system human fibroblasts. Description: Survival of fibroblasts at 80% and 30% confluency. It counts as cell-based. The note with it: 2.5 μM; for Mean survival, percentage of control-treated cells: fibroblasts, n=3. How it is done: as §3, §4, §5
In the next data set the test system is human skin. Description: Tolerability of topical NVX-207 on human skin. The note with it: 1% topical solution (200 μl, 20% ethanol, 20% Tween 80 in water), human arm, once a day for one week; checked up to 6 months after. It is filed as in vivo. How it is done:
A 1% topical solution of NVX-207 (200 μl total volume in 20% ethanol, 20% Tween® 80 in water) was topically applied to an area of skin on a human arm once a day for one week. A control solution (20% ethanol/20% Tween® 80 and 80% water) was applied to an area of skin adjacent to the area to which the NVX-207 solution was applied, also for one week.

Data set [3] concerns canine mammary carcinoma, scent gland carcinoma, soft tissue sarcoma. Description: Activity of NVX-207 in additional canine cancer patients (summary). The conditions noted are these: dog, in vivo. The source says: Overall survival time is given in months.

Structures are written as SMILES.

In the case of `C=C(C)[C@@H]1CC[C@]2(C(=O)OCC(N)(CO)CO)CC[C@]3(C)[C@H](CC[C@@H]4[C@@]5(C)CC[C@H](OC(C)=O)C(C)(C)[C@@H]5CC[C@]43C)[C@@H]12` [NVX-207, 3-O-acetylbetulinic acid-2-amino-3-hydroxy-2-hydroxymethylpropyl ester], the IC50 – broadly, the concentration needed to halve the response being measured – in the data set with MCF-7 turned out to be 4 µM; in the data set on Hep-G2, 3.3 µM; with RD-ES (Ewing's sarcoma), 5.3 µM; in the data set with TC-71 (Ewing's sarcoma), 5.5 µM. In addition, the “Efficacy on a molar basis in promoting cell death compared to betulinic acid” value in data set [1] is on record as “up to 5 fold”. The “Mean survival, percentage of control-treated cells” value is 18.3% in data set [2] (30% confluency), 90.3% in data set [2] (80% confluency), 3.8% in the data set with human fibroblasts (30% confluency) and 92% in the data set on human fibroblasts (80% confluency). The “More effective at 30% confluency compared to 80% confluency” value in data set [2] (endothelial cells) is about 5 fold. For the same molecule, the “More active against proliferating cells (30% vs 80% confluency)” value in the data set on human fibroblasts (human fibroblasts) is “over 20 fold”. Moreover, the “Undesirable (toxic) effects on treated skin” value in the data set with human skin is reported as “no undesirable (toxic) effects”. Further, the Inflammation during treatment entry in [3] is reported as “absence of inflammation”.

The values above are taken from patent US20150306110A1, “COMPOSITIONS AND METHODS FOR TREATMENT OF INFLAMMATION AND HYPERKERATOTIC LESIONS” (Novelix Pharmaceuticals, Inc., priority 2008, published 2015).
